Results taken from patent US6864249B2, “Piperidine and azetidine thrombin inhibitors” (LG Life Sciences, Ltd., priority 1998, dated 2005).
Structures can show the parent of a compound that is named as a salt. Where two headings read alike, the source gives them in different places.

Tests used:
[1] = Pharmacokinetic study for oral bioavailability in rats; type: in vivo, Male Sprague-Dawley rats; conditions: oral dosing in rats, 30 mg/kg
Method: Pharmacokinetic Studies for Determining Oral Bioavailability
Male Sprague-Dawley rats (250-300 g) were restrained individually in a surgical plate (Dae Jong Instrument Company, Seoul, Korea) as supine position. The femoral artery and the femoral vein (iv only) of rats were cannulated with polyethylene tubing (PE-50, Clay Adams, Parsippany, N.J., USA) under light ether anesthesia. After complete recovery from anesthesia, rats were given 30 mg/kg of test compound dissolved in distilled water via oral gavage or given 10 mg/kg via the femoral vein for intravenous (iv) study. Blood samples (0.25 mL) were collected from the femoral artery at 0 (for control), 1 (iv only), 5, 15, 30, 60, 90 (iv only), 120, 180, and 240 min after dosing.
Blood samples were taken into heparinized tube (25 U/mL), deproteinized with 2 volumes of methanol, and centrifuged. The resulting supernatant (60 μL) was analyzed by HPLC eluting with a mixture of 0.1% trifluoroacetic acid aqueous solution and acetonitrile with a ratio of 81% to 19%. Plasma concentration of test compound was recorded and used to calculate the pharmacokinetic parameters: maximum plasma concentration of test compound (Cmax), time of maximum plasma concentration (Tmax) area under the curve (AUC), and fraction of test compound absorbed (F).
Table 2 illustrates the pharmacokinetic results for some exemplary compounds of invention obtained upon oral dosing in rats.

thrombus formation = experiment: Rat venous thrombosis model (thromboplastin infusion and vena cava stasis, clot weight); type: in vivo, Male Sprague-Dawley rats; conditions: 1 mg/kg iv bolus 5 min before thromboplastin infusion
Method: In vivo Studies of the Compounds Claimed Herein Were Conducted Using the Following Procedure
Male Sprague-Dawley rats (body weights 250-300 g, 3-4/group) were anaesthetized by intraperitoneal injection with urethane solution (1.25 g/kg). […] The venae iliolumbar and spermatica were ligated with a silk thread. Thrombus formation was initiated by infusion of a thromboplastin preparation (Simplastin®) using an infusion pump (Model 100, IITC Life Science, USA) via the left femoral vein at 0.5 mL/kg/min. Simplastin® (Organon Teknika, USA) was reconstituted with 4 mL of distilled water and then given diluted at 1:2.5 in distilled water. At the start of infusion for 30 seconds, the vena cava was ligatured below the left renal vein. After the end of infusion, vena cava was also ligatured above the iliac veins 16 mm apart from upper ligature. After 15 min of stasis, the thrombus formed inside the vessel was carefully removed and weighed. Before wighing, the excess blood was removed by blotting the wet clot on the wet Whatman filter paper (see, Millet, J.; Theveniaux, J.; Brown, N. L. Thromb. Haemost. 1992, 67, 176).
Saline (control) or test compounds (1 mg/kg) were injected as a bolus via the femoral vein starting 5 min before the thromboplastin infusion. Bolus injection volume was 0.5 mL/kg. Antithrombotic activity was expressed as a percentage where: Antithrombotic activity (%)=100×(A−B)/A • A=mean clot weight of control group • B=mean clot weight of test compound group

[2] = biological target: T1, Thrombin prepared from human plasma (Homo sapiens, UniProt P00734); experiment: In vitro enzyme assay for thrombin inhibition constants (Chromozym TH substrate, Dixon plot); type: biochemical; conditions: pH 7.8, room temperature
T1 construct: Thrombin used in this test was prepared from human plasma; from tissue; host or cells: human plasma
Method: In vitro Enzyme Assays for Determining Inhibition Constants
The activity of thrombin was measured spectrophotometrically using tosyl-Gly-Pro-Arg-p-nitroanilide acetate (Chromozym TH, Boehringer Mannheim) as a substrate. […] Each compound was dissolved in DMSO to make a 1 mM stock solution and dilutions were made thereof with assay buffer (0.1 M Tris HCl, 0.15 M NaCl, 0.1% polyethylene glycol 8000, pH 7.8). Different concentrations of inhibitor were mixed with […] of thrombin in 0.8 mL of the buffer. The mixture was incubated for 10 min at room temperature before adding 0.2 mL of the substrate to a final concentration of 20 μM. […] A graph for the reciprocal value of initial velocity to the inhibitor concentration was derived from progress curves by fitting the data using a linear regression program.

[3] = male, Sprague-Dawley, rat, plasma
[4] = male, Sprague-Dawley, rat, plasma, read-out: AUC (converted)
[5] = male, Sprague-Dawley, rat, plasma, read-out: Cmax

Tmax [1, 3] [min]	AUC [1, 4] [ng·h/mL]	Cmax [1] [ng/mL]	Ki [2] [nM]	Cmax [1, 5] [ng/mL]	AUC [1] [ng·h/mL]	Compound	Antithrombotic activity (inhibition of thrombus formation) (thrombus formation) [%]
60	4220	2200	–	–	–	N=C(N)c1ccc(CNC(=O)[C@@H]2CCCN2C(=O)[C@H](NS(N)(=O)=O)C(c2ccccc2)c2ccccc2)s1 [Example 1, N-aminosulfonyl-D-diphenylalanyl-L-prolyl-[(5-amidino-2-thienyl)methyl]amide.TFA]	100
–	–	–	0.004	–	–	CS(=O)(=O)N[C@@H](C(=O)N1CCC[C@H]1C(=O)NCc1ccc(C(=N)N)s1)C(c1ccccc1)c1ccccc1 [Example 3, N-methylsulfonyl-D-diphenylalanyl-L-prolyl-[(5-amidino-2-thienyl)methyl]amide.TFA]	100
32	4670	–	5.8	1800	–	CS(=O)(=O)N[C@@H](C(=O)N1CCC[C@H]1C(=O)NCc1ccc(CN)s1)C(c1ccccc1)c1ccccc1 [Example 5, N-methylsulfonyl-D-diphenylalanyl-L-prolyl-[(5-aminomethyl-2-thienyl)methyl]amide.TFA]	–
60	26900	–	0.014	9600	–	COC(=O)N[C@@H](C(=O)N1CCC[C@H]1C(=O)NCc1ccc(C(=N)N)s1)C(c1ccccc1)c1ccccc1 [Example 8, N-methoxycarbonyl-D-diphenylalanyl-L-prolyl-[(5-amidino-2-thienyl)methyl]amide.TFA]	–
45	–	–	0.022	2100	4230	N=C(N)c1csc(CNC(=O)[C@@H]2CCCN2C(=O)[C@H](NS(N)(=O)=O)C(c2ccccc2)c2ccccc2)c1 [Example 11, N-aminosulfonyl-D-diphenylalanyl-L-prolyl-[(4-amidino-2-thienyl)methyl]amide.TFA]	100
80	–	–	–	4500	14200	COC(=O)N[C@@H](C(=O)N1CCC[C@H]1C(=O)NCc1cc(C(=N)N)cs1)C(c1ccccc1)c1ccccc1 [Example 14, N-methoxycarbonyl-D-diphenylalanyl-L-prolyl-[(4-amidino-2-thienyl)methyl]amide.TFA]	–
–	–	–	0.056	–	–	N=C(N)c1cc(CNC(=O)[C@@H]2CCCN2C(=O)[C@H](NS(N)(=O)=O)C(c2ccccc2)c2ccccc2)cs1 [Example 15, N-aminosulfonyl-D-diphenylalanyl-L-prolyl-[(5-amidino-3-thienyl)methyl]amide.TFA]	100
80	–	–	0.06	5200	21620	COC(=O)N[C@@H](C(=O)N1CCC[C@H]1C(=O)NCc1csc(C(=N)N)c1)C(c1ccccc1)c1ccccc1 [Example 19, N-methoxycarbonyl-D-diphenylalanyl-L-prolyl-[(5-amidino-3-thienyl)methyl]amide.TFA]	100
15	–	9500	0.015	–	23170	N=C(N)c1ccc(CNC(=O)[C@@H]2CCCN2C(=O)[C@H](NCC(=O)O)C(c2ccccc2)c2ccccc2)s1 [Example 29, N-carboxymethyl-D-diphenylalanyl-L-prolyl-[(5-amidino-2-thienyl)methyl]amide.2TFA]	100
45	16100	–	4.6	7100	–	COC(=O)N[C@@H](C(=O)N1CCC[C@H]1C(=O)NCc1ccc(C(=N)N)o1)C(c1ccccc1)c1ccccc1 [Example 35, N-methoxycabonyl-D-diphenylalanyl-L-prolyl-[(5-amidino-2-furanyl)methyl]amide.TFA]	–
–	–	–	0.12	–	–	N=C(N)c1csc(CNC(=O)[C@@H]2CCCN2C(=O)[C@H](NS(N)(=O)=O)C(c2ccccc2)c2ccccc2)n1 [Example 37, N-aminosulfonyl-D-diphenylalanyl-L-prolyl-[(4-amidino-2-thiazolyl)methyl]amide.TFA]	–
–	–	–	0.23	–	–	Cn1c(CNC(=O)[C@@H]2CCCN2C(=O)[C@H](NS(C)(=O)=O)C(c2ccccc2)c2ccccc2)ccc1C(=N)N [Example 38, N-methylsulfonyl-D-diphenylalanyl-L-prolyl-[(5-amidino-1-methyl-2-pyrrolyl)methyl]amide.TFA]	–
15	–	4600	–	–	3530	N=C(N)c1cc(CNC(=O)[C@@H]2CCCN2C(=O)[C@H](NCC(=O)O)C(c2ccccc2)c2ccccc2)cs1 [Example 39, N-carboxymethyl-D-diphenylalanyl-L-prolyl-[(5-amidino-3-thienyl)methyl]amide.2TFA]	–
25	–	11100	0.6	–	18770	N=C(N)c1csc(CNC(=O)[C@@H]2CCCN2C(=O)[C@H](NCC(=O)O)C(c2ccccc2)c2ccccc2)n1 [Example 40, N-carboxymethyl-D-diphenylalanyl-L-prolyl-[(4-amidino-2-thiazolyl)methyl]amide.2TFA]	–
20	–	4900	0.011	–	8380	N=C(N)c1ccc(CNC(=O)[C@@H]2CCCN2C(=O)[C@H](NCCC(=O)O)C(c2ccccc2)c2ccccc2)s1 [Example 41, N-(2-carboxyethyl)-D-diphenylalanyl-L-prolyl-[(5-amidino-2-thienyl)methyl]amide.2TFA]	100
–	–	–	84	–	–	CC(C)(C)OC(=O)N[C@@H](C(=O)N1CCC[C@H]1C(=O)NCc1ccc(C(N)=NN)s1)C(c1ccccc1)c1ccccc1 [Example 42, N-Boc-D-Diphenylalanyl-L-prolyl-[(5-amidrazono-2-thienyl)methyl]amide.TFA]	–
–	–	–	9.1	–	–	NN=C(N)c1ccc(CNC(=O)[C@@H]2CCCN2C(=O)[C@H](N)C(c2ccccc2)c2ccccc2)s1 [Example 43, D-diphenylalanyl-L-prolyl-[(5-amidrazono-2-thienyl)methyl]amide.2TFA]	–
–	–	–	395	–	–	CS(=O)(=O)N[C@H](Cc1ccccc1)C(=O)N1CCC[C@H]1C(=O)NCc1ccc(C(N)=NN)s1 [Example 44, N-methylsulfonyl-D-phenylalanyl-L-prolyl-[(5-amidrazono-2-thienyl)methyl]amide.TFA]	–
